The source of these data is ChEMBL document CHEMBL1148131, “Efficacy of scopadulcic acid A against Plasmodium falciparum in vitro” (J Nat Prod, 2002).

Format in all cases: functional, organism-based
In test [1] the test system is Plasmodium falciparum. Nature of the test: Antimalarial activity against multidrug-resistant Plasmodium falciparum TM91C235 after 24 hrs by [3H]hypoxanthine uptake.
Test [2] has as its system Plasmodium falciparum. Nature of the test: Antimalarial activity against Plasmodium falciparum D6 after 24 hrs by [3H]hypoxanthine uptake.
Test [3] deals with Plasmodium falciparum. Nature of the test: Antimalarial activity against Plasmodium falciparum W2 after 24 hrs by [3H]hypoxanthine uptake.

On to `OC(c1cc(C(F)(F)F)nc2c(C(F)(F)F)cccc12)C1CCCCN1` (centres undefined) [MEFLOQUINE], for which the IC50 (commonly the midpoint of a concentration-inhibition curve) in the test with Plasmodium falciparum [1] turned out to be 0.059 µM.

In the case of `C[C@]12CC[C@]3(C1)[C@H](CC2=O)C[C@@H](OC(=O)c1ccccc1)[C@H]1[C@@](CO)(C(=O)O)CCC[C@@]13C` [SCOPADULCIC ACID A], the 50% inhibitory concentration (IC50) in the test on Plasmodium falciparum [1] stood at 23 µM; with Plasmodium falciparum [2] it was 27 µM; with Plasmodium falciparum [3], 19 µM.
